Results: US5830909A (American Cyanamid Company, priority 1996, dated 1998)
Where a name gives a salt, the structure may show the parent alone.

How the values were obtained:
AII receptor [1] = molecular target: T1, AII receptor (Rattus norvegicus, UniProt P25095); assay: Displacement of 125I[Sar,Ile]AII binding in rat epididymal fat cell membranes
T1 construct: adipose tissue from the epididymal and retroperitoneal depots is quickly excised; from tissue; host or cells: membranes of collagenase-isolated adipocytes from epididymal and retroperitoneal fat of male Sprague-Dawley rats
T1 sequence (P25095 1-359): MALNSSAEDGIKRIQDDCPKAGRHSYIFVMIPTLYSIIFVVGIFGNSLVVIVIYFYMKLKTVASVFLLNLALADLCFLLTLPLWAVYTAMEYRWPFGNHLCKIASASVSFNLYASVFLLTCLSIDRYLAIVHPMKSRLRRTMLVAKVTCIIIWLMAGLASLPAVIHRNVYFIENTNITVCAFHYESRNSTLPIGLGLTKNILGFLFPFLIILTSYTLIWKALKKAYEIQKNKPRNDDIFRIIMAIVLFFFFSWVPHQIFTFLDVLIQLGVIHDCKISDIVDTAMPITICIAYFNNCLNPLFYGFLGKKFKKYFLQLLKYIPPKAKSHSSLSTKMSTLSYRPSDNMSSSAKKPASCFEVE
Description: The experimental design involves determining the binding characteristics of adipocyte membranes harvested from two different anatomic sites at three different ages. Male Sprague-Dawley rats (Charles River Laboratories, Wilmington, Mass.) are used at 40, 70 and 100 days of age. Rats are killed by carbon dioxide inhalation on the morning of the experiment, and adipose tissue from the epididymal and retroperitoneal depots is quickly excised and placed in cold saline. The spermatic artery and vein are removed from the epididymal fat, and brown fat deposits are dissected away from the retroperitoneal depot. The adipose tissue is weighed, minced into small pieces, and approximately 10 g each transferred to a flask containing 25 ml of Krebs-Ringer-bicarbonate buffer (KRB), 6 mM glucose and 50 mg of collagenase, pH 7.4. […] Intact adipocytes dissociated from the tissue pass freely into waiting tubes, while the undigested tissue is trapped on the screen. The tubes containing the adipocytes are washed an additional 4× with 20 ml each of cold Tris buffer (10 mM Tris HCl, pH 8.0) by first allowing the adipocytes to separate from the digestion medium by flotation, removing the infranatant through polyethylene tubing attached to a syringe, resuspending the cells in the Tris buffer, and repeating this procedure. Adipocyte membranes used for binding studies are prepared as follows. […] Following centrifugation, the fat cake and supernatant are carefully removed, and the pellet resuspended in 1 ml of Tris buffer. Protein content of the high speed pellet is determined, the resuspended protein is either assayed immediately or stored at -75° before binding assays are performed. […] The assay is initiated by the addition of the membrane protein, followed by incubation at 22° C. for 30 minutes in a slowly shaking water bath. Separation of bound from free radioactivity is achieved using any appropriate filtration apparatus. We use either a Millipore or Brandel model harvesting apparatus containing a Durapore or Whatman GF/B filter, followed by 6 additional rinses with 5 ml each of cold saline. The filters are placed in tubes, and radioactivity measured in a gamma scintillation counter programmed to correct for the half-life of the isotope. Using this experimental protocol, both the affinity (KD) and number of binding sites (Bmax) for angiotensin II on the adipocyte membrane can be calculated. The relative affinities of different anatomically distinct adipocyte membranes for a variety of peptide and nonpeptide antagonists can also be determined. […] Concentration ranges can be altered dependent upon the affinity of the particular antagonist for the fat cell membrane receptor.

AII receptor [2] = molecular target: T1, AII receptor; assay: Displacement of 125I[Sar,Ile]AII binding in rat retroperitoneal fat cell membranes
Description: The experimental design involves determining the binding characteristics of adipocyte membranes harvested from two different anatomic sites at three different ages. Male Sprague-Dawley rats (Charles River Laboratories, Wilmington, Mass.) are used at 40, 70 and 100 days of age. Rats are killed by carbon dioxide inhalation on the morning of the experiment, and adipose tissue from the epididymal and retroperitoneal depots is quickly excised and placed in cold saline. The spermatic artery and vein are removed from the epididymal fat, and brown fat deposits are dissected away from the retroperitoneal depot. […] Protein content of the high speed pellet is determined, the resuspended protein is either assayed immediately or stored at -75° before binding assays are performed. […] Separation of bound from free radioactivity is achieved using any appropriate filtration apparatus. […] The filters are placed in tubes, and radioactivity measured in a gamma scintillation counter programmed to correct for the half-life of the isotope. Using this experimental protocol, both the affinity (KD) and number of binding sites (Bmax) for angiotensin II on the adipocyte membrane can be calculated. The relative affinities of different anatomically distinct adipocyte membranes for a variety of peptide and nonpeptide antagonists can also be determined. […]

[3] = type: in vivo, rat; settings: 15 mg/kg once a day by gavage, two weeks
Protocol: (§1) Body weight and food intake are monitored daily. At the end of two weeks, the rats are sacrificed and tissues are weighed. Adipocyte membranes are prepared by collagenase digestion, homogenization and centrfugation. […] Of the organs sampled, the combined largest relative and quantitative change in weight was in the adipose tissue.

adipocyte AII receptor = assay: Epididymal adipocyte AII receptor binding (Bmax) after two weeks oral treatment; type: in vivo, rat; settings: 4 rats/group, oral once daily for 2 weeks
Protocol: Body weight and food intake are monitored daily. At the end of two weeks, the rats are sacrificed and tissues are weighed. Adipocyte membranes are prepared by collagenase digestion, homogenization and centrfugation.
Binding is initiated by suspending the adipocyte membranes in 0.25% BSA buffer (bovine serum albumin, 50 mM Tris HCl, 5 mM MgCl2,pH 7.4) to a final concentration of 5 ug protein/10 ul buffer. […] The filters are placed in tubes, and radioactivity measured in a gamma scintillation counter programmed to correct for the half-life of the isotope. Using this experimental protocol, both the affinity (KD) and number of binding sites (Bmax) for angiotensin II on the adipocyte membrane can be calculated.

epididymal adipocytes = assay: Epididymal adipocyte cell volume after two weeks oral treatment; type: in vivo, rat; settings: 4 rats/group, oral once daily for 2 weeks
Protocol: as §1

IC50 (AII receptor [1]; Epididymal IC50 for displacement of 125I[Sar,Ile]AII binding, rat epididymal fat cell membranes (Table 8)) [µM] | Structure (SMILES) | IC50 (AII receptor [1]; Inhibitory Constants (IC50) for displacement of 125I[Sar,Ile]AII binding, Epididymal, rat epididymal fat cell membranes, 1 nM radioligand, 1-4 assays) [µM] | IC50 (AII receptor [2]) [µM] | Avg. Daily Food Intake, % Change From Control [3] [%] | Avg. Weight Gain, % Change From Control [3] [%] | Epididymal Fat Weight, % Change From Control [3] [%] | Final Body Weight, % Change From Control [3] [%] | Retroperitoneal Fat Weight, % Change From Control [3] [%] | Avg. Daily Food Intake ([3]; n = 6) [g] | Avg. Weight Gain ([3]; n = 6) [g] | Epididymal Fat Weight ([3]; n = 6) [g] | Final Body Weight ([3]; n = 6) [g] | Retroperitoneal Fat Weight ([3]; n = 6) [g] | Bmax, epididymal adipocyte AII receptor binding (adipocyte AII receptor) [fmole/mg protein] | Adipocyte Cell Volume (epididymal adipocytes) [p1]
 | Cc1cc(Cn2cnc3c2C[C@@H](C(=O)O)N(C(=O)C(c2ccccc2)c2ccccc2)C3)ccc1N(C)C [((S)-)-[[4-(di-methylamino)-3-methylphenyl]methyl-5-(diphenylacetyl)-4,5,6,7-tetrahydro-1H-imidazo[4,5-c]-pyridine-6-carboxylic acid, reference compound] | 173 | 242 |  |  |  |  |  |  |  |  |  |  |  | 
0.0146 | CCCCc1nc2ccc([C@@]3(C)C[C@@H]4CCCN4O3)cc2c(=O)n1Cc1ccc(-c2ccccc2-c2nnn[nH]2)cc1 (racemic) [cis-(+/-)-2-butyl-6-(hexahydro-2-methylpyrrolo[1,2-b]isoxazol-2-yl)-3-[[2'-(1H-tetrazol-5-yl)[1,1-biphenyl]-4-yl]methyl]-4(3H)-quinazolinone sodium salt] |  |  | -7 | -55 | -17 | -7 | -11 | 30.4 | 25 | 4.33 | 424 | 4.35 | 31.8 | 187
